Consider 12 compounds from ChEMBL document CHEMBL1201862, “PubChem BioAssay data set” (2004).

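Values below derive from 48-hour exposures of cells grown in 96-well plates, with endpoints linearly interpolated between the two concentrations bracketing the appropriate inhibition level. GI50 is the concentration that inhibits growth by half.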 Calls of active or inactive are those of the source. Rule as the data show it: active = GI50 up to about 1.1 µM and inactive = higher.

Experiment in all cases: growth of human tumour cells (NCI), 48 h
In experiment [1] the test system is SF-295.
Experiment [2] relates to HCC 2998.
Experiment [3] concerns COLO 205.
The test system of experiment [4] is SK-MEL-28.
Experiment [5] concerns SK-MEL-5.
Experiment [6] concerns MDA-N.
Experiment [7] has as its system 786-0.
The subject of experiment [8] is ACHN.
The subject of experiment [9] is MOLT-4.
Experiment [10] relates to MDA-MB-231.
The subject of experiment [11] is SNB-75.
Experiment [12] relates to IGROV-1.
The test system of experiment [13] is T47D.
In experiment [14] the test system is MCF7.
The subject of experiment [15] is HCT-15.
Experiment [16] relates to UO-31.
Experiment [17] relates to DU-145.
The subject of experiment [18] is RXF 393.
Experiment [19] has as its system SK-MEL-2.

Turning to `O=S(=O)(c1ccccc1)C1(CCC2OCCO2)C=CC2(CC1)OCCO2` (configuration not stated), the GI50 in experiment [1], in experiment [2], in experiment [3], in experiment [4], in experiment [5] and in experiment [6] was > 100 µM (inactive) in each case. Besides, the GI50 in experiment [7], in [8], in experiment [9], in experiment [10], in experiment [11] and in experiment [12] was > 100 µM (inactive) throughout. The GI50 in experiment [13] was > 100 µM (inactive); in experiment [14] it was > 100 µM (inactive); in [15] it was over 100 µM; in experiment [16] it was > 100 µM (inactive); in experiment [17], > 100 µM (inactive).
Regarding `Cc1ccc(S(=O)(=O)N2C[C@@H]3CC[C@]4(CO[Si](C)(C)C(C)(C)C)N[C@@H](c5ccccc5)[C@H]2[C@H]34)cc1`, the GI50 is 24.9 µM (inactive) in experiment [1]; 18.4 µM (inactive) in experiment [2]; 17.6 µM (inactive) in experiment [3]; > 100 µM (inactive) in [4]; 13.8 µM (inactive) in experiment [5]; 29.2 µM (inactive) in experiment [6]. Besides, the GI50 was 27.8 µM (inactive) in experiment [7]; 14.5 µM (inactive) in experiment [18]; 37.2 µM (inactive) in experiment [8]; 19 µM (inactive) in [9]; 28.1 µM (inactive) in [10]; 31.3 µM (inactive) in [12]. Moreover, the GI50 in experiment [19] is 48.2 µM (inactive); in [13] it was 8.18 µM (inactive); in experiment [14] it was 28.6 µM (inactive); in experiment [15] it was 24.7 µM; in [16], 33 µM (inactive); in [17], 45 µM (inactive).
As to `CC(Nc1cccc(Cl)c1)c1ccncc1` (configuration not stated), the GI50 in [1] is > 100 µM (inactive); in experiment [3], > 100 µM (inactive); in experiment [4], > 100 µM (inactive); in [5], 31.6 µM (inactive); in [6] it was > 100 µM (inactive); in [7], > 100 µM (inactive). In addition, the GI50 was 42.8 µM (inactive) in [18]; 87.1 µM (inactive) in experiment [8]; 31 µM (inactive) in [9]; > 100 µM (inactive) in experiment [10]; > 100 µM (inactive) in [11]; > 100 µM (inactive) in experiment [12]. Also, the GI50 was > 100 µM (inactive) in [19]; 27.4 µM (inactive) in [13]; > 100 µM (inactive) in [14]; over 100 µM in experiment [15]; 7.21 µM (inactive) in [16]; 94.4 µM (inactive) in [17].
Take `C[C@H]1CC[C@@H]2[C@@H](C)C[C@H]3[C@@H]4C(C)(C)OC(=O)[C@]4(C)C(=O)[C@@]23C1=O`: the GI50 in experiment [1], in experiment [2], in [3], in experiment [4], in experiment [5] and in experiment [6] was > 100 µM (inactive) throughout. Further, the GI50 in experiment [7] was > 100 µM (inactive); in [8] it was > 100 µM (inactive); in experiment [9], > 100 µM (inactive); in experiment [10], 42.5 µM (inactive); in experiment [11], > 100 µM (inactive); in experiment [12], > 100 µM (inactive). The GI50 is 14 µM (inactive) in experiment [13], > 100 µM (inactive) in [14], over 100 µM in [15] and > 100 µM (inactive) in experiment [17].
With `COc1cc(/C=N/c2ccc(Oc3ccc(Cl)cc3)c(Cl)c2)cc(OC)c1OC`, the GI50 in experiment [1] was 18.2 µM (inactive); in [2] it was 19.3 µM (inactive); in experiment [3], 17.2 µM (inactive); in [4] it was 21.3 µM (inactive); in [5], 17.7 µM (inactive); in [6], 22.6 µM (inactive). The GI50 is 13.6 µM (inactive) in [7]; 29.1 µM (inactive) in experiment [8]; 24.9 µM (inactive) in [9]; 16.8 µM (inactive) in experiment [10]; 23.7 µM (inactive) in experiment [11]; 21.8 µM (inactive) in experiment [12]. Besides, the GI50 in [19] is 17.8 µM (inactive); in [13], 3.53 µM (inactive); in experiment [14] it was 29.6 µM (inactive); in experiment [15], 19.5 µM; in experiment [16] it was 11 µM (inactive); in [17], 11.7 µM (inactive).
With `CC1(C)CC(=O)c2c(nc3ccc4ccccc4c3c2-c2ccc(NC(=O)CCCCCCCCC(=O)Nc3ccc(-c4c5c(nc6ccc7ccccc7c46)CC(C)(C)CC5=O)cc3)cc2)C1`, the GI50 in experiment [1], in [3], in experiment [4], in [5], in experiment [6] and in experiment [7] was > 100 µM (inactive) each time. The GI50 in experiment [8], in [9], in [10], in experiment [12], in [19] and in [13] was > 100 µM (inactive) each time. Moreover, the GI50 is > 100 µM (inactive) in experiment [14], over 100 µM in experiment [15], > 100 µM (inactive) in experiment [16] and > 100 µM (inactive) in [17].
For the compound `N=C(N)NC(CC(=O)O)c1ccccc1` (configuration not stated), the GI50 in experiment [1], in [3], in experiment [4], in [5], in experiment [6] and in experiment [7] was > 100 µM (inactive) each time. The GI50 in [18], in [8], in [10], in [11], in experiment [12] and in [19] was > 100 µM (inactive) in each case. Moreover, the GI50 in experiment [13] was > 100 µM (inactive); in experiment [14], > 100 µM (inactive); in [15], over 100 µM; in experiment [16] it was > 100 µM (inactive); in experiment [17], > 100 µM (inactive).
For the compound `Cc1cn(CC(=S)NCCc2c[nH]c3ccccc23)c(=O)[nH]c1=O`, the GI50 in [3] was > 100 µM (inactive); in [4], > 100 µM (inactive); in [5], 35.5 µM (inactive); in experiment [6], 48 µM (inactive); in experiment [7], > 100 µM (inactive); in experiment [18] it was > 100 µM (inactive). Also, the GI50 was 69.3 µM (inactive) in [8]; 12.8 µM (inactive) in [9]; > 100 µM (inactive) in experiment [10]; > 100 µM (inactive) in [12]; > 100 µM (inactive) in [19]; 34.5 µM (inactive) in [13]. Also, the GI50 was 63.7 µM (inactive) in [14], over 100 µM in experiment [15], 87.1 µM (inactive) in [16] and > 100 µM (inactive) in [17].
With `COc1ccc(-n2c3c(c4cc(O)ccc42)C(=O)c2ccccc2C3=O)cc1`, the GI50 in experiment [1] was 2.86 µM (inactive); in experiment [3] it was 80.5 µM (inactive); in [4] it was 3.08 µM (inactive); in experiment [5], 2.73 µM (inactive); in experiment [6], > 100 µM (inactive); in experiment [7], 1.72 µM (inactive). The GI50 in experiment [18] is 2.84 µM (inactive); in experiment [8], 0.682 µM (active); in experiment [9], 7.66 µM (inactive); in [10], 2 µM (inactive); in experiment [12], 3.79 µM (inactive); in experiment [19] it was 5.75 µM (inactive). Also, the GI50 is 8.24 µM (inactive) in experiment [13]; 10.7 µM (inactive) in [14]; over 100 µM in experiment [15]; 14.7 µM (inactive) in [16]; 19.1 µM (inactive) in experiment [17].
Consider `Cc1c(Cl)cccc1/N=N/C(=O)NNc1cccc(Cl)c1C`, for which the GI50 in experiment [2] was 17.3 µM (inactive); in [4], 16.6 µM (inactive); in [5], 15.3 µM (inactive); in experiment [6] it was 17.2 µM (inactive); in experiment [7] it was 23.1 µM (inactive); in experiment [8], 20.1 µM (inactive). The GI50 in [9] is 13.3 µM (inactive); in experiment [10], 17.8 µM (inactive); in experiment [11] it was 18 µM (inactive); in experiment [12], 6.37 µM (inactive); in [19], 13.6 µM (inactive); in experiment [13], 10.7 µM (inactive). The GI50 was 14.3 µM in experiment [15], 12.5 µM (inactive) in experiment [16] and 14.4 µM (inactive) in experiment [17].
For the compound `CC1(O)CC(=O)c2c(cc3ccc(-c4c5c(c(O)c6c(O)cccc46)C(=O)CC(C)(O)C5)c(O)c3c2O)C1` (configuration not stated), the GI50 in experiment [1] is 0.179 µM (active); in experiment [3], 0.0442 µM (active); in experiment [4], 0.326 µM (active); in experiment [5] it was 0.187 µM (active); in experiment [6], 0.867 µM (active); in experiment [7] it was 0.435 µM (active). Also, the GI50 was < 0.01 µM (active) in experiment [18]; 0.125 µM (active) in [8]; 0.422 µM (active) in experiment [9]; 0.311 µM (active) in experiment [10]; 0.129 µM (active) in [11]; 0.348 µM (active) in experiment [12]. The GI50 in experiment [19] is 0.271 µM (active); in experiment [13] it was 0.562 µM (active); in experiment [14] it was 0.199 µM (active); in experiment [15], 0.09 µM; in experiment [16], 0.212 µM (active); in [17] it was 0.33 µM (active).
On to `CC(/C=C/c1ccc([N+](=O)[O-])o1)=N/N1CC(CN2CCOCC2)OC1=O` (configuration not stated), for which the GI50 in experiment [1] was 86.1 µM (inactive); in experiment [2] it was 28.9 µM (inactive); in experiment [3] it was 16.3 µM (inactive); in [4] it was 17.3 µM (inactive); in experiment [5] it was 14.7 µM (inactive); in [6], 18.6 µM (inactive). Moreover, the GI50 in experiment [7] was 28.1 µM (inactive); in experiment [8] it was 16.6 µM (inactive); in experiment [9] it was 22.9 µM (inactive); in [10] it was 23.6 µM (inactive); in experiment [19], 16.9 µM (inactive); in experiment [13], 16.5 µM (inactive). The GI50 in experiment [14] was 13.1 µM (inactive); in [15] it was 16.5 µM; in experiment [16], 21.3 µM (inactive); in [17], 19.9 µM (inactive).
